In paper PMC10052977, “α,ω-Diacyl-Substituted Analogues of Natural and Unnatural Polyamines: Identification of Potent Bactericides That Selectively Target Bacterial Membranes” (International Journal of Molecular Sciences, 2023):
Where two headings read alike, the source gives them in different places.

What was measured:
[1] = test system: Staphylococcus aureus ATCC 25923 or ATCC 29213; assay: MIC, broth dilution (CA-SFM); format: cell-based
MRSA ATCC 43300 = assay: MIC, CO-ADD broth microdilution; format: cell-based, Staphylococcus aureus; settings: for MIC: Staphylococcus aureus, MRSA ATCC 43300, mean (n = 2), read-out: MIC MRSA
[2] = test system: Escherichia coli ATCC 25922; assay: MIC, CO-ADD broth microdilution; format: cell-based; settings: ATCC25922, mean (n = 2)
[3] = test system: Pseudomonas aeruginosa PAO1 or ATCC 27853; assay: MIC, broth dilution (CA-SFM); format: cell-based; settings: mean (n = 3)
[4] = test system: Klebsiella pneumoniae ATCC700603; assay: MIC, CO-ADD broth microdilution; format: cell-based; settings: mean (n = 2)
[5] = test system: Acinetobacter baumannii ATCC19606; assay: MIC, CO-ADD broth microdilution; format: cell-based; settings: mean (n = 2)
[6] = test system: Candida albicans ATCC90028; assay: Antifungal MIC, CO-ADD; format: cell-based; settings: mean (n = 2)
How it was run: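 Yeast from 3-day YPD cultures was diluted in YNB broth to a final 2.5 × 10^3 CFU/mL and incubated at 35 °C for 36 h without shaking. C. albicans MICs were read by OD530 absorbance. QC used fluconazole and Z'-factor controls.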

[7] = test system: Cryptococcus neoformans ATCC208821; assay: Antifungal MIC, CO-ADD; format: cell-based; settings: ATCC208821, Cryptococcus neoformans ATCC208821, mean (n = 2)
How it was run: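 Fungal strains were grown on YPD agar at 30 °C for 3 days. Five colonies were used to make a yeast suspension of 1 × 10^6 to 5 × 10^6 CFU/mL, which was diluted in yeast nitrogen base (YNB) broth to 2.5 × 10^3 CFU/mL. Covered plates were incubated without shaking at 35 °C for 36 h. Fluconazole was the positive control, and quality was judged from antimicrobial controls and the Z'-factor.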

[8] = Cytotoxicity assay (resazurin); format: cell-based, human; settings: human; HEK293 cells; mean (n = 2); highest dose tested 32 μg/mL; read-out: Cytotoxicity (concentration of compound at 50% cytotoxicity, IC50)
human red blood cells = assay: Hemolytic assay; format: cell-based; settings: for Hemolysis (HC10, concentration at 10% hemolytic activity): mean (n = 2)
How it was run: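 Washed human erythrocytes at 0.5 × 10^8 cells/mL in 0.9% NaCl, shaken 10 min with compound, then held 1 h at 37 °C. Released hemoglobin in supernatant after centrifugation read at OD405; HC10 and HC50 from variable-slope sigmoidal fit against log concentration.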

P. aeruginosa ATCC27853 = assay: Doxycycline potentiation (MIC of antibiotic in presence of synergizing compound); format: cell-based, Pseudomonas aeruginosa; settings: doxycycline 2 μg/mL, P. aeruginosa ATCC 27853
[9] = test system: HEK293 human embryonic kidney cells; assay: Cytotoxicity assay (resazurin); format: cell-based; settings: HEK293
MRSA (CF-Marseille) [10] = assay: MIC, classical microdilution; format: cell-based; settings: Staphylococcus aureus, 4.4 μM = 4 μg/mL
[11] = test system: Bacillus cereus ATCC 11778; assay: MIC, classical microdilution; format: cell-based; settings: ATCC11778, 4.4 μM = 4 μg/mL
[12] = test system: Bacillus cereus ATCC 11778; assay: Minimum bactericidal concentration test; format: cell-based; settings: ATCC11778, same value as MIC
Description: (§1) A pure culture of a specified microorganism was grown overnight, then diluted in growth-supporting broth (typically Mueller–Hinton II broth) to a concentration between 1 × 10^5 and 1 × 10^6 CFU/mL. A stock dilution of the antimicrobial test compound was created at approximately 100 times the expected previously determined MIC. Further 1:1 dilution was made in 96-well microtiter plates. All dilutions of the test compound were inoculated with equal volumes of the specified microorganism (typically 100 µL). […] An aliquot of the positive control is plated and used to establish a baseline concentration of the microorganism used. The microtiter plates were then incubated at 37 °C for 24 h. Turbidity indicates growth of the microorganism, and the MIC is the lowest concentration where no growth is visually observed. To determine the minimum bactericidal concentration (MBC), the dilution representing the MIC and at least two of the more concentrated test product dilutions are plated on a solidified agar plate to determine the bacterial viability. The MBC is the lowest concentration where no growth is encountered when compared to the MIC dilution.

MRSA (CF-Marseille) [13] = assay: Minimum bactericidal concentration test; format: cell-based; settings: Staphylococcus aureus, same value as MIC
Description: as §1

S. aureus ATCC 25923 [14] = assay: Minimum bactericidal concentration test; format: cell-based; settings: Staphylococcus aureus, ATCC25923, same value as MIC
Description: as §1

MRSA (CF-Marseille) [15] = assay: Real-time growth curves; format: cell-based, Staphylococcus aureus
Description: (§2) Solutions of compound 15d at concentrations of 2, 4 and 16 µg/mL were tested, each in triplicate, against S. aureus ATCC 25923, MRSA (CF-Marseille) and Bacillus cereus ATCC 11778. Typically, in a 96-well plate, 10 µL of 40, 80 and 320 µg/mL stock solutions of compound 15d were placed, as well as 190 µL of a 5 × 10^5 CFU/mL of the selected bacterial suspension in brain heart infusion (BHI) broth. Positive controls containing only 200 µL of a 5 × 10^5 CFU/mL of bacterial suspension in BHI and negative controls containing only 200 µL of BHI broth were added. The plate was incubated at 37 °C in a TECAN Spark Reader (Roche Diagnostic), and real-time bacterial growth was followed by OD590 nm measurement every 10 min during 19 h.

S. aureus ATCC 25923 [16] = assay: Real-time growth curves; format: cell-based, Staphylococcus aureus
Description: as §2

[17] = test system: Bacillus cereus ATCC 11778; assay: Real-time growth curves; format: cell-based; settings: B. cereus ATCC 11778
Description: as §2

S. aureus ATCC 25923 [18] = assay: ATP release assay (bioluminescence); format: cell-based, Staphylococcus aureus; settings: brief exposure
Description: The mechanism of action of antibacterial activity observed for 15d was attributed to the ability to disrupt the bacterial cell membrane.
Solutions of test compound 15d were prepared in DMSO at various concentrations. A suspension of growing S. aureus to be studied in Muller–Hinton II broth was prepared and incubated at 37 °C. An aliquot (90 µL) of this suspension was added to 10 µL of test compound solution and vortexed for 10 s. Luciferin–luciferase reagent (Yelen, France; 50 µL) was immediately added to this mixture and luminescent signal quantified with an Infinite M200 microplate reader (Tecan) over a 30 min period. ATP concentration was quantified by internal sample addition. A similar procedure was used for the CTAB positive control.

[19] = Staphylococcus aureus ATCC 25923 or ATCC 29213, mean (n = 3), read-out: MIC S. a
[20] = at 4.4 μM (4 µg/mL) and 17 μM (16 µg/mL)
[21] = lowest tested concentration 2.2 μM (2 µg/mL)

SMILES	MIC [1, 19]	MIC (MRSA ATCC 43300)	MIC [2]	MIC [3]	MIC [4]	MIC [5]	MIC [6]	MIC [7]	IC50 at 20 h [8]	Hemolysis (HC10, concentration at 10% hemolytic activity) (human red blood cells)	cytotoxicity [9]	hemolytic properties (human red blood cells)	other results
Cl.Cl.S=C(NCCCNCCCCCCCCCCNCCCNC(=S)NC(c1ccccc1)c1ccccc1)NC(c1ccccc1)c1ccccc1 [Compound 6e, N^1,N^10-Bis(3-(3-benzhydrylthioureido)propyl)decane-1,10-diaminium chloride]	> 247 µM	≤ 0.31 µM	≤ 0.31 µM	247 µM	> 39.5 µM	4.9 µM	≤ 0.31 µM	> 39.5 µM	> 39.5 µM	>39.5 µM	–	–	antibiotic enhancement of doxycycline (P. aeruginosa ATCC27853): particularly strong enhancers; melting point: 114 to 115 °C
O=C(CCC(=O)NCCCc1ccccc1)NCCCNCCCCCCCCCCCCNCCCNC(=O)CCC(=O)NCCCc1ccccc1.O=C(O)C(F)(F)F.O=C(O)C(F)(F)F [Compound 14f, N^1,N^12-Bis(3-(4-oxo-4-((3-phenylpropyl)amino)butanamido)propyl)dodecane-1,12-diaminium 2,2,2-trifluoroacetate]	6.25 µM	≤ 0.26 µM	> 32.7 µM	> 100 µM	> 32.7 µM	> 32.7 µM	> 32.7 µM	> 32.7 µM	> 32.7 µM	>32.7 µM	non-toxic	non-hemolytic	activity towards MRSA (MRSA ATCC 43300; MRSA): potent
O=C(CC(c1ccccc1)c1ccccc1)NCCCNCCCCCCCCNCCCNC(=O)CC(c1ccccc1)c1ccccc1.O=C(O)C(F)(F)F.O=C(O)C(F)(F)F [Compound 15d, N^1,N^8-Bis(3-(3,3-diphenylpropanamido)propyl)octane-1,8-diaminium 2,2,2-trifluoroacetate]	3.13 µM	≤ 0.28 µM	2.2 µM	100 µM	> 35.4 µM	> 35.4 µM	> 35.4 µM	> 35.4 µM	> 35.4 µM	>35.4 µM	no detectable	no detectable	MIC ([1]; Staphylococcus aureus, S. aureus ATCC 25923, classical microdilution, 4.4 μM = 4 μg/mL, read-out: MIC): 4.4 µM; MIC (MRSA (CF-Marseille) [10]): 4.4 µM; MIC [11]: 4.4 µM; MBC [12]: 4.4 µM; MBC (MRSA (CF-Marseille) [13]): 4.4 µM; MBC (S. aureus ATCC 25923 [14]): 4.4 µM; real-time growth inhibition (MRSA (CF-Marseille) [15]; [20]): completely inhibited; time after which bacterial growth was detected (MRSA (CF-Marseille) [15]; [21]): 4 h; real-time growth inhibition (S. aureus ATCC 25923 [16]; [20]): completely inhibited; time after which bacterial growth was detected (S. aureus ATCC 25923 [16]; [21]): 6 h; real-time growth inhibition [17, 20]: completely inhibited; time after which bacterial growth was detected [17, 21]: 12 h; leakage of intracellular ATP (S. aureus ATCC 25923 [18]): rapid dose-dependent leakage of intracellular ATP
O=C(CCC(=O)NCCC(c1ccccc1)c1ccccc1)NCCCNCCCCNCCCNC(=O)CCC(=O)NCCC(c1ccccc1)c1ccccc1.O=C(O)C(F)(F)F.O=C(O)C(F)(F)F [Compound 16a, N^1,N^4-Bis(3-(4-((3,3-diphenylpropyl)amino)-4-oxobutanamido)propyl)butane-1,4-diaminium 2,2,2-trifluoroacetate]	25 µM	≤ 0.25 µM	> 31.5 µM	–	> 31.5 µM	> 31.5 µM	> 31.5 µM	≤ 0.28 µM	> 31.5 µM	>31.5 µM	–	–	MIC ([3]; 18 h): 20 µM; fold increase (antibiotic enhancement vs intrinsic MIC) (P. aeruginosa ATCC27853): 8 fold
